Test results as given in article PMC8286840, “Identifying SARS-CoV-2 antiviral compounds by screening for small molecule inhibitors of Nsp3 papain-like protease” (Biochemical Journal, 2021).
Entries after “also recorded” stand apart in the source; their conditions may differ. Where a name gives a salt, the structure may show the parent alone. Read-outs that look alike come from different tables or passages of the source.

How the values were obtained:
[1] = target: T1, SARS-CoV-2 PLpro (nsp3 1564–1878) (Severe acute respiratory syndrome coronavirus 2, UniProt P0DTD1); test: biochemical; set-up: FRET-quenched peptide (Pro3) cleavage by PLpro, 10 min pre-incubation, slope over 20 min, normalised to no-compound control; settings: low concentration screen, read-out: % of control remaining
SARS-CoV-2 = test: microbe, parasite or virus in culture; format: cell-based
PLpro from SARS-CoV-1 = settings: cited from earlier work
SARS-CoV-2 PLpro [2] = target: T2, SARS-CoV-2 PLpro (Severe acute respiratory syndrome coronavirus 2, UniProt P0DTD1); format: biochemical; settings: 3.75 µM and 10 µM compound, 0.5 µM enzyme, 5 h RT
[3] = target: T1, SARS-CoV-2 PLpro (nsp3 1564–1878); test: biochemical; set-up: FRET-quenched peptide (Pro3) cleavage by PLpro, 10 min pre-incubation, slope over 20 min, normalised to no-compound control; settings: high concentration screen, read-out: % of control remaining
3CLpro (nsp5) = 3CLpro (nsp5) (Severe acute respiratory syndrome coronavirus 2, UniProt P0DTD1); format: biochemical, SARS-CoV-2; settings: 3 and 10 µM compound
[4] = target: T1, SARS-CoV-2 PLpro (nsp3 1564–1878); test: biochemical; format: biochemical; settings: for Inhibition (%) 1.25 µM / Inhibition (%) 3.75 µM: 1.75 µM enzyme, 20 µM substrate; for Normalized activity High (3.75 µM) / Normalized activity Low (1.25µM): normalized to control without compound; for IC50: fluorescent-based assay
SARS-CoV-2 PLpro [5] = target: T2, SARS-CoV-2 PLpro; format: biochemical; settings: 10 µM inhibitor, 50 nM PLpro, 1 µM substrate, 1 h 25°C
SARS-CoV-2 PLpro [6] = target: T2, SARS-CoV-2 PLpro; format: biochemical; settings: 10 µM inhibitor, 50 nM PLpro, 1 µM substrate, 1 h 25°C; remark: listed apart in the source
[7] = screen, 1.25 µM compound, number after the slash is the control without compound
[8] = screen, 3.75 µM compound, number after the slash is the control without compound

C[C@H]1COC2=C1C(=O)C(=O)c1c2ccc2c1CCCC2(C)C [Cryptotanshinone, cryptotanshinone]
remaining activity at 1.25 µM ([1]; Well no.=3557): 100%
EC50 (SARS-CoV-2; Severe acute respiratory syndrome coronavirus 2, Vero C1008, VERO E6 cells, compound alone, read-out: EC50 viral proliferation): 223 µM
Concentration below which viral growth was not inhibited (SARS-CoV-2; VERO E6 cells): ≥ 200 µM
Inhibition of SARS-CoV-1 PLpro (PLpro from SARS-CoV-1): better inhibitors of this enzyme than dihydrotanshinone I
Inhibition of PLpro cleavage of the substrate (gel-based) (SARS-CoV-2 PLpro [2]): show inhibition; also recorded: inhibited cleavage, but only at the higher concentration
remaining activity at 3.75 µM ([3]; Well no.=3557): 103%
Inhibition of 3CLpro activity (gel-based) (3CLpro (nsp5)): did not inhibit

O=C(O)c1cccc(O)c1O [Pyrocatechuic acid]
Z score ([4]; screen hits, Table 1): −6.846
Inhibition (%) 1.25 µM ([4]; screen, 1.25 µM compound): 0%
slope value (of slope value/control) 1.25 µM [4, 7]: 453
Inhibition (%) 3.75 µM ([4]; screen, 3.75 µM compound): 49%
slope value (of slope value/control) 3.75 µM [4, 8]: 226
remaining activity at 1.25 µM ([1]; Well no.=6595): 103%
Inhibition of PLpro cleavage of the substrate (gel-based) (SARS-CoV-2 PLpro [2]): did not inhibit
remaining activity at 3.75 µM ([3]; Well no.=6595): 51%

Cn1c(=O)c2[nH]c(-c3ccc(S(=O)(=O)O)cc3)nc2n(C)c1=O [8-(p-Sulfophenyl)theophylline]
Z score ([4]; screen, Table S1): -14.155
Normalized activity High (3.75 µM) ([4]; screen, Table S1): 0
Normalized activity Low (1.25µM) ([4]; screen, Table S1): 0.9534

CCCn1c(=O)c2[nH]c(-c3ccc(S(=O)(=O)O)cc3)nc2n(CCC)c1=O [1,3-Dipropyl-8-p-sulfophenylxanthine]
Z score ([4]; screen, Table S1): -14.155
Normalized activity High (3.75 µM) ([4]; screen, Table S1): 0
Normalized activity Low (1.25µM) ([4]; screen, Table S1): 0.885

CC(C)=CC[C@@H](O)C1=CC(=O)c2c(O)ccc(O)c2C1=O [shikonin]
Inhibition of pro-ISG15 cleavage (deISGylating activity) (SARS-CoV-2 PLpro [5]): did not inhibit
remaining activity at 1.25 µM ([1]; Well no.=3172): 86.4%
remaining activity at 1.25 µM ([1]; Well no.=6398): 96.8%
remaining activity at 3.75 µM ([3]; Well no.=3172): 82.5%
remaining activity at 3.75 µM ([3]; Well no.=6398): 92.6%
Inhibition of K48-linked Ub3 cleavage (DUB activity) (SARS-CoV-2 PLpro [6]): did not inhibit and not

C[C@H](CCC(=O)O)[C@H]1CC[C@H]2[C@@H]3[C@@H](O)C[C@@H]4C[C@H](O)CC[C@]4(C)[C@H]3CC[C@]12C [Ursodiol]
slope value (of slope value/control) 1.25 µM [4]: 26 (324/440)
slope value (of slope value/control) 3.75 µM [4]: 55 (187/420)
inhibition at 1.25 µM ([4]; read-out: Inhibition (%) 1.25 µM): 26%
inhibition at 3.75 µM ([4]; read-out: Inhibition (%) 3.75 µM): 55%
Z score ([4]; screen hits, Table 1): −7.78
remaining activity at 1.25 µM ([1]; Well no.=8332): 89.1%
Inhibition of PLpro cleavage of the substrate (gel-based) (SARS-CoV-2 PLpro [2]): did not inhibit
remaining activity at 3.75 µM ([3]; Well no.=8332): 90.6%

CC[C@@H]1Cc2cc(O)ccc2C2=C1c1ccc(O)cc1C[C@H]2CC (relative stereo) [(R,R)-cis-Diethyl tetrahydro-2,8-chrysenediol]
Z score ([4]; screen, Table S1): -14.155
Normalized activity High (3.75 µM) ([4]; screen, Table S1): 0
Normalized activity Low (1.25µM) ([4]; screen, Table S1): 0.8033

O=C1c2ccccc2-c2nc3nnnn3nc21 [PDK1/Akt/Flt Dual Pathway Inhibitor]
IC50 [4]: 0.265 µM
IC50 ([4]; listed as PDK/Akt/Flt dual pathway inhibitor): 0.26 µM
Z score ([4]; screen hits, Table 1): −14.53
Inhibition (%) 1.25 µM ([4]; screen, 1.25 µM compound): 89%
slope value (of slope value/control) 1.25 µM [4, 7]: 50
Inhibition (%) 3.75 µM ([4]; screen, 3.75 µM compound): 100%
slope value (of slope value/control) 3.75 µM [4, 8]: 0
Z score ([4]; screen, Table S1): -14.531
Normalized activity High (3.75 µM) ([4]; screen, Table S1): -0.02621
Normalized activity Low (1.25µM) ([4]; screen, Table S1): 0.111
remaining activity at 1.25 µM ([1]; Well no.=2319): 11.1%
Inhibition of PLpro cleavage of the substrate (gel-based) (SARS-CoV-2 PLpro [2]): show inhibition; also recorded: strongly inhibited
remaining activity at 3.75 µM ([3]; Well no.=2319): -2.62%

CN[C@H](CC(C)C)C(=O)N[C@H]1C(=O)N[C@@H](CC(N)=O)C(=O)N[C@H]2C(=O)N[C@H]3C(=O)N[C@H](C(=O)N[C@H](C(=O)O)c4cc(O)cc(O)c4-c4cc3ccc4O)[C@H](O)c3ccc(c(Cl)c3)Oc3cc2cc(c3O[C@@H]2O[C@H](CO)[C@@H](O)[C@H](O)[C@H]2O[C@H]2C[C@](C)(N)[C@H](O)[C@H](C)O2)Oc2ccc(cc2Cl)[C@H]1O [Vancomycin (hydrochloride)]
remaining activity at 1.25 µM ([1]; Well no.=7882): 103%
remaining activity at 3.75 µM ([3]; Well no.=7882): 98.3%

CCCCn1c2ccc(O)cc2c2c3c(c(-c4ccccc4Cl)cc21)C(=O)NC3=O [Wee1 Inhibitor II]
remaining activity at 1.25 µM ([1]; Well no.=2685): 90.9%
remaining activity at 3.75 µM ([3]; Well no.=2685): 88.5%

CC(C)(C)c1ccc(C(O)CCCN2CCC(C(O)(c3ccccc3)c3ccccc3)CC2)cc1 (stereo not shown) [Terfenadine]
remaining activity at 1.25 µM ([1]; Well no.=1232): 100%
remaining activity at 1.25 µM ([1]; Well no.=1742): 97.7%
remaining activity at 1.25 µM ([1]; Well no.=6598): 103%
remaining activity at 3.75 µM ([3]; Well no.=1232): 102%
remaining activity at 3.75 µM ([3]; Well no.=1742): 98.6%
remaining activity at 3.75 µM ([3]; Well no.=6598): 104%

NCC=CC(=O)O (stereo in doubt) [cis-4-Aminocrotonic acid]
remaining activity at 1.25 µM ([1]; Well no.=114): 97.3%
remaining activity at 3.75 µM ([3]; Well no.=114): 98.2%

COc1ccc(C(=O)Nc2sc3c(c2C(N)=O)CCCC3)cc1OC [TCS 359 - 2-[(3,4-Dimethoxybenzoyl)amino]-4,5,6,7-benzo[b]thiophene-3-carboxamide]
remaining activity at 1.25 µM ([1]; Well no.=2580): 93.7%
remaining activity at 3.75 µM ([3]; Well no.=2580): 90%

CNCCC[C@]12CC[C@H](c3ccccc31)c1ccccc12 [Maprotiline hydrochloride]
remaining activity at 1.25 µM ([1]; Well no.=845): 103%
remaining activity at 3.75 µM ([3]; Well no.=845): 103%

CCN1CCN(Cc2ccc(-c3cc4c(N[C@H](C)c5ccccc5)ncnc4[nH]3)cc2)CC1 [AEE788 (NVP-AEE788)]
remaining activity at 1.25 µM ([1]; Well no.=5247): 102%
remaining activity at 3.75 µM ([3]; Well no.=5247): 102%

C[C@]12CC[C@@H]3c4ccc(O)cc4CC[C@H]3[C@@H]1CC[C@@H]2O [beta-Estradiol]
remaining activity at 1.25 µM ([1]; Well no.=511): 107%
remaining activity at 3.75 µM ([3]; Well no.=511): 104%

C[C@H]1CC[C@@H]2N(C1)C[C@H]1[C@@H]3C[C@H]4[C@@H](CC(=O)[C@H]5C[C@@H](O)CC[C@@]54C)[C@@H]3CC[C@H]1[C@]2(C)O [Imperialine]
remaining activity at 1.25 µM ([1]; Well no.=3155): 93.8%
remaining activity at 3.75 µM ([3]; Well no.=3155): 101%

Oc1ccc2ccccc2c1N=Nc1ccc(N=Nc2ccccc2)cc1 [Sudan III]
remaining activity at 1.25 µM ([1]; Well no.=8024): 93.7%
remaining activity at 3.75 µM ([3]; Well no.=8024): 93.4%

C[C@@H]1CN(CC(=O)Nc2ccc3c(c2)Cc2cccc(-c4cc(=O)cc(N5CCOCC5)o4)c2S3)C[C@H](C)O1 [KU-60019]
remaining activity at 1.25 µM ([1]; Well no.=5299): 93.8%
remaining activity at 3.75 µM ([3]; Well no.=5299): 85.8%

O=c1c(O)c(-c2ccc(O)c(O)c2)oc2cc(O)cc(O)c12 [Quercetin dihydrate]
remaining activity at 1.25 µM ([1]; Well no.=1315): 102%
remaining activity at 3.75 µM ([3]; Well no.=1315): 104%

O=c1[nH]c2ccccc2n1CCCN1CCN(C(c2ccccc2)c2ccccc2)CC1 [Oxatomide]
remaining activity at 1.25 µM ([1]; Well no.=994): 103%
remaining activity at 1.25 µM ([1]; Well no.=1855): 95.4%
remaining activity at 3.75 µM ([3]; Well no.=994): 101%
remaining activity at 3.75 µM ([3]; Well no.=1855): 98.9%

COc1c(O)cc2c(c1O)[C@@H]1O[C@H](CO)[C@@H](O)[C@H](O)[C@H]1OC2=O [Bergenin]
remaining activity at 1.25 µM ([1]; Well no.=3517): 103%
remaining activity at 3.75 µM ([3]; Well no.=3517): 107%
